Several values for one entry are separate records, joined by “and”; a condition that tells them apart may be missing. Equal entries are not always repeated. Where two headings read alike, the source gives them in different places.
Columns and labels:
[1] = tachycardia by 12 lead ECGs in human volunteers; assay type: in vivo
Experimental: Tachycardia was determined using 12 lead ECGs.

[2] = tested on: chronic constriction injury model of neuropathic pain; assay: thermal hyperalgesia, chronic constriction injury of the rat sciatic nerve; assay type: in vivo; conditions: rat CCI, 0.624 mg/kg p.o.
Source text: After approximately two weeks the rats developed thermal hyperalgesia in the operated leg as judged by the difference in paw withdrawal latencies of the right and left paws.

adenosine receptors = adenosine receptors (Rattus norvegicus, UniProt P30543); assay: EC50 at adenosine receptors measured at pH 7.4; assay type: biochemical; conditions: measured at pH7.4
Source text: (§1) For the avoidance of doubt, the EC50 value of a compound is defined herein as the concentration of the compound that provokes a receptor response halfway between the baseline receptor response and the maximum receptor response (as determined, for example, using a dose-response curve).
(§2) The EC50 value should be determined under standard conditions (balanced salt solutions buffered to pH 7.4). For EC50 determinations using isolated membranes, cells and tissues this would be in buffered salt solution at pH 7.4 (e.g. cell culture medium), for example as in Daly et al, Pharmacol. (1993) 46, 91-100), or preferably as in Tilburg et al (J. Med. Chem. (2002) 45, 91-100). The EC50 could also be determined in vivo by measuring adenosine receptor mediated responses in a normal healthy animal, or even in a tissue perfused under normal conditions (i.e. oxygenated blood, or oxygenated isotonic media, also buffered at pH 7.4) in a normal healthy animal.

[3] = tested on: chronic constriction injury model of neuropathic pain; assay: static allodynia, chronic constriction injury of the rat sciatic nerve; assay type: in vivo; conditions: rat CCI
Source text: The total dose administered is shown on the horizontal axis, and the paw withdrawal threshold (PWT) on the vertical axis.

[4] = biological target: T1, rat adenosine A1 receptor (Rattus norvegicus, UniProt P25099); conditions: cited from earlier work
T1 sequence (P25099 1-326): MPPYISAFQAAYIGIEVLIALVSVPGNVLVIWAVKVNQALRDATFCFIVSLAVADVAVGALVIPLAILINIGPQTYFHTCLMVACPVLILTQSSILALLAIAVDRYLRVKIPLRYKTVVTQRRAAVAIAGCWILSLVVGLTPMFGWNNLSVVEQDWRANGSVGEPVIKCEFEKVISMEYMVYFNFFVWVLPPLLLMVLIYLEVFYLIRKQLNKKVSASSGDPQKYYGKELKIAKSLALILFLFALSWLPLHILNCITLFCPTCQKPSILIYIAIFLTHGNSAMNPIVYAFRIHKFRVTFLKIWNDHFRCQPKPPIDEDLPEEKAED

[5] = 20 mg/kg po; cited from earlier work
rat A2A receptor = rat A2A receptor (Rattus norvegicus, UniProt P30543); conditions: read-out: EC50 for stimulation of the rat A2A receptor; cited from earlier work
adenosine A1 receptor = biological target: T2, adenosine A1 receptor (Cavia porcellus, UniProt P47745); conditions: guinea pig; read-out: EC50, adenosine A1 receptor, isolated heart preparation; cited from earlier work
T2 construct: host or cells: guinea pig isolated heart
T2 sequence (P47745 1-326): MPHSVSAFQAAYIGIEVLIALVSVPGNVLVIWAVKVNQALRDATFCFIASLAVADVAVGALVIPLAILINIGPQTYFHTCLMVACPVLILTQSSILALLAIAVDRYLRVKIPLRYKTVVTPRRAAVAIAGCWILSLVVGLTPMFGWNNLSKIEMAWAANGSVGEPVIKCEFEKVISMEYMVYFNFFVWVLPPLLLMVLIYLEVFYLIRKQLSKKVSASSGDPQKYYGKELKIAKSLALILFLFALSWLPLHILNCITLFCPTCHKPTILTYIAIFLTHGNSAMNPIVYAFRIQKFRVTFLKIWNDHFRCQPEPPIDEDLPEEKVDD

adenosine A2A receptor [6] = biological target: adenosine A2A receptor (UniProt P30543); assay: EC50 at the adenosine A2A receptor; assay type: biochemical
Source text: as §1, §2

[7] = plasma concentrations after single oral dosing in human volunteers; assay type: in vivo
[8] = tested on: carageenan-induced inflammation; conditions: rats, 20 mg/kg po; cited from earlier work
[9] = blood pressure and heart rate in rats (radiotelemetry); assay type: in vivo, rat
Source text: An implantable radiotelemetry device was placed in the abdominal cavity of 6 rats per group. The pressure catheter of the device was inserted in the abdominal aorta and two electrodes tunnelised under the skin in a lead II position (left side of abdominal cavity/right shoulder). Individual rats were placed in their own cage on a radioreceptor (DSI) for data acquisition. A: blood pressure; B: heart rate.

[10] = tested on: carrageenan (CGN) induced thermal hyperalgesia; assay: carrageenan induced thermal hyperalgesia (CITH); assay type: in vivo; conditions: 0.624 mg/kg p.o.; indomethacin 3 mg/kg po as comparator
Experimental: A. […] Carrageenan (2%, 10 microlitres) was administered into the right hind paw. A heat source was placed close to the treated and untreated hind paws, and the difference in the paw withdrawal latencies is shown. Spongosine was administered at the same time as carrageenan.

[11] = tested on: human macrophage cell line U937; assay: LPS induced TNF alpha release in U937 cells; assay type: cell-based; conditions: 100 ng/ml LPS, 3 hours
Experimental: Cells of human macrophage cell line U937 were grown in suspension to 500,000 cells/ml, plated out into 48 well plates, treated with 20 ng/ml PMA and incubated for 8 hours. Cells adhered to well bottoms and were washed and allowed to recover for 36 hours before use. […] After 3 hours the cell supernatants were assayed for TNF alpha using fluorescence labeled ELISA kits.

[12] = tested on: carrageenan (CGN) induced inflammation; assay: carrageenan induced paw inflammation (plethysmometry); assay type: in vivo; conditions: rat, 62.4 and 624 μg/kg i.p.; indomethacin 3 mg/kg po as comparator
Experimental: Carrageenan (2%, 10 microlitres) was administered into the right hind paw of a rat, and the paw volume assessed by plethysomometry. Spongosine was administered at the same time as carrageenan.

adenosine A2A receptor [13] = biological target: T3, adenosine A2A receptor (Cavia porcellus, UniProt P46616); conditions: guinea pig; read-out: EC50, adenosine A2A receptor, isolated heart preparation; cited from earlier work
T3 construct: host or cells: guinea pig isolated heart

[14] = biological target: adenosine receptors (rat striatal membranes, [3H]-CGS21680) (Rattus norvegicus, UniProt P30543); assay: Ki from displacement of [3H]-CGS21680 in rat striatal membranes at pH 5.5 and pH 7.4; assay type: binding; parameters: from tissue; host or cells: rat striatum (membranes); conditions: for Ki: 2 nM [3H]-CGS21680, 90 minutes at 22° C.
Chain of adenosine receptors (rat striatal membranes, [3H]-CGS21680) (P30543 whole entry): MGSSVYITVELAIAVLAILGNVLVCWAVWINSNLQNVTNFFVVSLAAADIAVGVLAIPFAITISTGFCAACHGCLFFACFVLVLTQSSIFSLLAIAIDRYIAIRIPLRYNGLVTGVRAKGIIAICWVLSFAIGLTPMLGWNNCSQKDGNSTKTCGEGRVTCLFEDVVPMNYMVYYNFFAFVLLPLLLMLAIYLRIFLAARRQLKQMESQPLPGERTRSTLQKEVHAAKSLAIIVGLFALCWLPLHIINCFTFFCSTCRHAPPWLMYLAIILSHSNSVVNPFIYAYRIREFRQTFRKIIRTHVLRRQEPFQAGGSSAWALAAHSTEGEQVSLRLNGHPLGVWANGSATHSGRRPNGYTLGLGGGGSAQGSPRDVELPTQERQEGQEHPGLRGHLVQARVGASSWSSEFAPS

Chain of adenosine receptors (P30543 whole entry): as above
Chain of rat A2A receptor (P30543 whole entry): as above
T3 sequence (P46616 whole entry): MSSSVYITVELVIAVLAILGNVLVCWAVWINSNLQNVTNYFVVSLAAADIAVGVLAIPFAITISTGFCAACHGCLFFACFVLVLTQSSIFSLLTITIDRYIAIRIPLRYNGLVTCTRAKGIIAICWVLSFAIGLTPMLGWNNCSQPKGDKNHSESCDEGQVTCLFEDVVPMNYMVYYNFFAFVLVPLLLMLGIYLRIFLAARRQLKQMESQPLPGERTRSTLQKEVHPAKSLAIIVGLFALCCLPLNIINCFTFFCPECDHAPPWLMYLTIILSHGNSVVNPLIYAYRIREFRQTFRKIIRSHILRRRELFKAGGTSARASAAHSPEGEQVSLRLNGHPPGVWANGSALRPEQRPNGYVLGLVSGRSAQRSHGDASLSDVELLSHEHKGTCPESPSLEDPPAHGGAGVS

EC50 (adenosine receptors): 3030 nM and 3000 nM
EC50 (adenosine A2A receptor [6]): ~1000 nM
Cmax ([7]; single oral dose 0.2 mg): 10 ± 5 nM
Cmax ([7]; single oral dose 0.8 mg): 40 ± 20 nM
Cmax ([7]; single oral dose 3.5 mg): 130 ± 40 nM
Cmax ([7]; single oral dose 10.5 mg): 300 ± 40 nM
Cmax ([7]; single oral dose 21 mg): 500 ± 100 nM
Cmax ([7]; single oral dose 28 mg): 600 ± 100 nM
Ki ([14]; pH 5.5, read-out: (Ki) nM (pH 5.5)): 1.5 nM
Ki ([14]; pH 7.4, read-out: (Ki) nM (pH 7.4)): 1300 nM
affinity for adenosine receptors at pH below pH 7.4 ([14]; pH below pH 7.4 compared with pH 7.4): increased affinity
SMILES: COc1nc(N)c2ncn([C@@H]3O[C@H](CO)[C@@H](O)[C@H]3O)c2n1 [Compound 1, 2-methoxyadenosine]
Tachycardia side effect ([1]; single oral dose 0.2 mg): No
Tachycardia side effect ([1]; single oral dose 0.8 mg): No
Tachycardia side effect ([1]; single oral dose 3.5 mg): No
Tachycardia side effect ([1]; single oral dose 10.5 mg): No
Tachycardia side effect ([1]; single oral dose 21 mg): No
Tachycardia side effect ([1]; single oral dose 28 mg): Yes
inhibition of thermal hyperalgesia (paw withdrawal latencies) [2]: inhibits thermal hyperalgesia
efficacy compared with carbamazepine ([2]; CBZ 100 mg/kg s.c.): as, or more, effective than carbamazepine
inhibition of static allodynia (paw withdrawal threshold) ([3]; […] p.o., presence and absence of naloxone (1 mg/kg s.c.)): inhibits static allodynia
inhibition of static allodynia (paw withdrawal threshold) ([3]; p.o., dose response): inhibit static allodynia
Kd [4]: 340 nM
reduction in heart rate [5]: 25%
reduction in mean blood pressure [5]: 41%
EC50 (rat A2A receptor): 3000 nM
EC50 (adenosine A1 receptor): 10000 nM
inhibition of carageenan-induced inflammation [8]: 25%
effect on blood pressure ([9]; 62.4 and 624 μg/kg i.p.): do not affect blood pressure
effect on blood pressure ([9]; normal rats, 0.624 mg/kg p.o.): no significant effect
effect on heart rate ([9]; normal rats, 0.624 mg/kg p.o.): no significant effect
inhibition of carrageenan induced thermal hyperalgesia [10]: inhibits carrageenan (CGN) induced thermal hyperalgesia (CITH) with comparable efficacy to indomethacin
inhibition of LPS induced TNF alpha release [11]: inhibits LPS induced TNF release
inhibition of carrageenan induced inflammation (paw volume) [12]: inhibits carrageenan (CGN) induced inflammation with comparable efficacy to indomethacin
EC50 (adenosine A2A receptor [13]): 700 nM

Reference: patent US20080221060A1, “Therapeutic Compounds” (priority 2004, published 2008)
